Results from patent US20100297109A1, “METHODS FOR INHIBITING FASCIN” (Cornell University, priority 2007, published 2010).

Assays:
[1] = tested on: human fascin His474 to Lys or Ala mutants; assay: Chamber migration of fascin siRNA-treated 4T1 cells rescued with His474 mutants of human fascin; type: cell-based; conditions: His474 to Lys or Ala human fascin in fascin siRNA-treated 4T1 cells
Description: Boyden Chamber Cell Migration Assay. Cells (5×10^4) suspended in starvation medium were added to the upper chamber of an insert (6.5 mm diameter, 8-micrometer pore size, Becton Dickenson), and the insert was placed in a 24-well dish containing starvation medium with or without 10% FBS (Yang et al. 2005, Shan et al. 2006). When used, inhibitors were added to both chambers. Migration assays were carried out for 4-6 hours and cells were fixed with 3.7% formaldehyde. Cells were stained with crystal violet staining solution, and cells on the upper side of the insert were removed with a cotton swab. Three randomly selected fields (10× objectives) on the lower side of the insert were photographed, and the migrated cells were counted. The migration was expressed as either the average number of migrated cells in a field or as percentage of migrated cells in positive control. Percentage was calculated with the formula P=100×(M−Mnc)/Mpc, where P is the percentage of migrated cells, M is the number of migrated cells, Mnc is the number of migrated cells in negative controls, and Mpc is the number of migrated cells in positive controls.

fascin = fascin (Homo sapiens, UniProt Q16658); assay: F-actin bundling assay, low-speed centrifugation (F-actin pelleting); type: biochemical; design: GST (N); made in house; host or cells: Escherichia coli BL21
Description: Whole cell lysates from 4T1 mouse breast tumor cells were made. After preclearing the cell lysate with immobilized neutravidin biotin binding protein (Pierce, IL, USA) to remove biotin and avidin-binding proteins, the cell lysates were loaded to a column packed with the biotin-labeled macroketone (conjugated to neutravidin beads). A control column packed with free biotin and neutravidin beads was run side-by-side. After washing the column with 10 bed volumes of lysis buffer with 300 mM NaCl, the bound proteins were eluted with 0.1 M Glycine-HCl at pH 2.8 according to the manufacturer's instruction. […] Protein Expression and Purification. Recombinant GST-fascin fusion protein was produced in BL21 Escherichia coli. A 1-liter culture was grown to an A600 reading of 1.0 and then induced by addition of 0.3 mM isopropyl 1-thio-D-galactopyranoside (IPTG) for 12 hours at 25° C. Cells were flash frozen and then lysed by sonication in Tris-buffered saline. The supernatant was then incubated with glutathione-Sepharose for 2 h at 4° C. After extensive washing, GST-fascin was eluted and concentrated with a Centricon Plus-20 (Millipore). To remove the GST tag from the fusion protein, beads were incubated with thrombin overnight at 4° C. The supernatant was collected and concentrated. […] Actin bundling activity was measured by low speed centrifugation assay and fluorescence microscopy. […]

[2] = tested on: mouse embryonic fibroblast (MEF) cells; assay: Wound-healing assay, serum-induced migration of MEF cells; type: cell-based; conditions: 200 μM
[3] = biological target: T1, fascin His474 to Ala mutant (Homo sapiens, UniProt Q16658, H474A); assay: Actin bundling assay with fascin H474A mutant; type: biochemical
T1 construct: GST (N, cleaved yes); made in house; host or cells: Escherichia coli BL21 (pGEX4T-Fascin1)
Source text: Identification of fascin as the protein target of migrastatin analogs. Whole cell lysates from 4T1 mouse breast tumor cells were made. After preclearing the cell lysate with immobilized neutravidin biotin binding protein (Pierce, IL, USA) to remove biotin and avidin-binding proteins, the cell lysates were loaded to a column packed with the biotin-labeled macroketone (conjugated to neutravidin beads). A control column packed with free biotin and neutravidin beads was run side-by-side. After washing the column with 10 bed volumes of lysis buffer with 300 mM NaCl, the bound proteins were eluted with 0.1 M Glycine-HCl at pH 2.8 according to the manufacturer's instruction. […] A 1-liter culture was grown to an A600 reading of 1.0 and then induced by addition of 0.3 mM isopropyl 1-thio-D-galactopyranoside (IPTG) for 12 hours at 25° C. […] Actin bundling activity was measured by low speed centrifugation assay and fluorescence microscopy. […] Both supernatants and pellets were dissolved in an equivalent volume of SDS sample buffer, and the amount of actin was determined by SDS-PAGE. For fluorescence microscopy, monomeric G-actin was polymerized as described above. […] The samples were mounted between a slide and a coverslip coated with poly-lysine and imaged by fluorescence microscopy. […] Both supernatants and pellets were dissolved in an equivalent volume of SDS sample buffer and analyzed by SDS-PAGE. […]

For `COC1C=CCCCCC(=O)CCC(C)=CC(C)C1O` (centres unmarked) [macroketone, Migrastatin ketone], the “inhibition of rescued migration” value [1] was “not inhibited”, the “fascin-induced bundling of F-actin polymers” value (fascin; with fascin) was “significantly decreased” and the “formation of F-actin bundles, compound alone” value (fascin; without fascin) was “had no effect”. The “effect on serum-induced migration (wound-healing)” value [2] was “had no effect” and the “sensitivity of actin bundling activity of fascin mutant” value [3] was “resistant”.
